In patent US20090069276A1, “Treatment, prevention and amelioration of pulmonary disorders associated with chemotherapy or radiotherapy with active vitamin D compounds or mimics thereof” (Novacea, Inc., priority 2005, published 2009):
Where two headings read alike, the source gives them in different places.

How the values were obtained:
[1] = in vivo; cited from earlier work
[2] = tested on: patients with androgen independent prostate cancer; settings: Taxotere 36 mg/m^2 weekly, calcitriol 45 μg weekly by HDPA
Source text: Two hundred fifty patients with androgen independent prostate cancer were enrolled in a randomized placebo controlled trial at 48 centers in the United States and Canada. All patients in the study received chemotherapy treatment with weekly Taxotere®, a drug in the taxoid class of chemotherapeutic agents. […] Oral dexamethasone was also given along with the Taxotere® to minimize certain side effects (allergic reactions and fluid retention) associated with Taxotere®.
In addition to Taxotere® and dexamethasone, half of the patients were randomly treated with calcitriol and the other half received a placebo. Calcitriol was administered as three capsules of 15 μg each once a week on the day prior to chemotherapy. […] The same Taxotere® dose of 36 mg/m^2 body surface area was administered to the patients receiving Taxotere® and placebo or Taxotere® in combination with calcitriol. Drugs were administered for three weeks out of a four week cycle, with calcitriol being administered on days 1, 7, and 21 and Taxotere® being administered on days 2, 8, and 22.

[3] = tested on: patients; settings: administered doses; Glover 1988; cited from earlier work
[4] = tested on: cancer patients; settings: cited from earlier work
[5] = Solubility study of calcitriol in the formulations (light microscopy); format: physicochemical; settings: each formulation of Table 3; prepared at 50° C., cooled to room temperature; highest concentration tested
Protocol: To further assess the formulations of calcitriol, a solubility study was conducted to evaluate the amount of calcitriol soluble in each formulation. Calcitriol concentrations from 0.1 to 0.6 μg calcitriol/mg fomulation were prepared by heating the formulations to 50° C. followed by addition of the appropriate mass of calcitriol. The formulations were then allowed to cool to room temperature and the presence of undissolved calcitriol was determined by a light microscope with and without polarizing light. For each formulation, calcitriol was soluble at the highest concentration tested, 0.6 μg calcitriol/mg formulation.

[6] = tested on: cancer patients; settings: cited from earlier work; for Patients who developed pneumonia: refractory chronic lymphocytic leukemia
[7] = acute promyelocytic leukemia, Tallman 1997

C=C1/C(=C\C=C2/CCC[C@]3(C)C([C@H](C)CC#CC(C)(C)O)=CC[C@@H]23)C[C@@H](O)C[C@@H]1O [Ro23-7553]
Hypercalcemic effect, in words [1]: reduced hypercalcemic effect

CC(=O)O[C@@]12CO[C@@H]1C[C@H](O)[C@@]1(C)C(=O)[C@H](O)C3=C(C)[C@@H](OC(=O)[C@H](O)[C@@H](NC(=O)OC(C)(C)C)c4ccccc4)C[C@@](O)([C@@H](OC(=O)c4ccccc4)[C@H]21)C3(C)C [Taxotere®]
Patients hospitalized for dyspnea [2]: four | Patients who developed ARDS [2]: One

NCCCNCCSP(=O)(O)O [WR 2721, S-2-(3-aminopropylamino)ethylphosphorothioic acid]
Patients with emesis [3]: 48% | Patients with hypotension [3]: 7%

CC1=C(/C=C/C(C)=C/C=C/C(C)=C/C(=O)O)C(C)(C)CCC1 [all-trans-retinoic acid]
Patients who developed grade III or IV pulmonary toxicity (total) [4, 7]: Twenty | Patients with lethal pulmonary toxicity [4, 7]: 2% | Patients with life-threatening pulmonary toxicity [4, 7]: 11% | Patients with severe pulmonary toxicity [4, 7]: 7%

C=C1/C(=C\C=C2/CCC[C@]3(C)[C@@H]([C@H](C)CCCC(C)(C)O)CC[C@@H]23)C[C@@H](O)C[C@@H]1O [calcitriol, 1α,25-hydroxyvitamin D3]
Calcitriol soluble in formulation [5]: ≥ 0.6 μg calcitriol/mg formulation

Nc1nc(F)nc2c1ncn2[C@@H]1O[C@H](COP(=O)(O)O)[C@@H](O)[C@@H]1O [fludarabine phosphate]
Patients who developed pneumonia ([6]; 15-25 mg/m^2 daily for five days every 28 days): 22% | Patients who developed pneumonia ([6]; 22-40 mg/m^2 daily for five days every 28 days): 16%

Nc1ccn([C@@H]2O[C@H](CO)[C@@H](O)C2(F)F)c(=O)n1 [gemcitabine]
Patients with grade III-IV respiratory toxicity ([4]; out of 40 bladder cancer patients, 1200 mg/m^2 IV weekly times three on a 4-week cycle, Stadler 1997): 2 patients

gemtuzumab: cancer drug given to acute myelogenous patients; product Mylotarg™, Wyeth-Ayerst
Patients with grade III or IV pneumonia ([6]; acute myelogenous patients, 9 mg/m^2 IV over 2 hours, two doses 14 days apart, Mylotarg package insert): 7%
